Source: article PMC12649225, “Machine Learning-Identified Potent Antimicrobial Peptides Against Multidrug-Resistant Bacteria and Skin Infections” (Antibiotics, 2025)
Read-outs that look alike come from different tables or passages of the source.

Assays:
[1] = tested on: A. baumannii RUH875 biofilm; assay: Biofilm killing; assay type: cell-based, Acinetobacter baumannii; details: for Concentration killing ≥3 log CFU of A. baumannii biofilm within 2 h: 24 h biofilm, 2 h treatment in PBS, 1.88-120 μM, vs untreated biofilm; for A. baumannii biofilm killing, 24 h treatment (in words): up to 120 µM
Method: Mid-logarithmic phase cultures of A. baumannii RUH875 or S. aureus JAR060131 were diluted to 1 × 10^8 CFU/mL in RPMI supplemented with 1% glucose. A total of 100 μL of each suspension was added to flat-bottom polystyrene 96-well microplates (Costar) and incubated under static conditions at 37 °C in a humidified atmosphere for 24 h to allow biofilm formation. After 24 h, planktonic bacteria were removed, and wells were carefully washed with 100 μL PBS [60]. […] Control samples were exposed to 100 μL of PBS only.
Biofilms were treated at 37 °C for either 2 or 24 h. […] Plates were sealed and sonicated for 5 min (Elmasonic, Singen, Germany; 45 kHz) at room temperature to dislodge adherent bacteria. […] Quantitative cultures were performed by plating serial 10-fold dilutions on sheep blood agar, and results were expressed as log10 CFU per well. The lower limit of detection was three CFU. Each condition was tested in six replicates.

S. aureus JAR060131 = assay: SYTOX Green membrane permeabilization assay; assay type: cell-based, Staphylococcus aureus; details: for Time to rise in SYTOX fluorescence intensity after peptide addition, S. aureus: at both sublethal and lethal concentrations
Method: Control samples were exposed to RPMI only. As a positive control, heat-killed bacteria were incubated at 95 °C for 10 min to induce maximum membrane permeabilization. Fluorescence (excitation: 485 nm, emission: 520 nm) was monitored every minute for 90 min at 37 °C using a […] plate reader (Ortenberg, Germany), with peptides and positive controls added after the third cycle. Background fluorescence (SYTOX Green alone) was subtracted from all values. All assays were performed in triplicate and repeated twice independently.

MDR ESKAPE pathogens = assay: Bactericidal activity (LC99.9), statements for the whole panel; assay type: cell-based
Method: (§1) The bacterial strains used in this study included S. aureus JAR060131 [54] and the MDR ESKAPE pathogens Enterococcus faecium LUH15122, S. aureus LUH14616, Klebsiella pneumoniae LUH15104, A. baumannii RUH875 [55], Pseudomonas aeruginosa LUH15103, Enterobacter cloacae LUH15114, and the colistin-resistant Escherichia coli LUH15117. Before each experiment, bacteria from frozen stocks were cultured at 37 °C for 18–24 h on sheep blood agar plates (BioMérieux, Marcy-l’Étoile, France). All strains were then cultured from colonies either in tryptic soy broth (TSB; Oxoid, Basingstoke, UK) for A. baumannii, S. aureus, and E. faecium, or in brain heart infusion broth (BHI; Oxoid) for K. pneumoniae, P. aeruginosa, E. cloacae, and E. coli at 37 °C with shaking at 120 rpm for 18–24 h. Subsequently, bacteria were cultured to mid-logarithmic phase in the media described above at 37 °C with shaking at 120 rpm for 3 h. Bacteria were then washed twice with PBS and diluted to the required inoculum suspension concentration in Roswell Park Memorial Institute (RPMI)-1640 medium containing 20 mM HEPES and L-glutamine but without sodium bicarbonate (Sigma-Aldrich; hereafter referred to as RPMI), based on optical density at 620 nm. RPMI was selected because it supports bacterial growth without impairing AMP activity.
(§2) Bactericidal activity was assessed as described by de Breij et al.. Briefly, mid-logarithmic phase bacterial cultures were diluted to a final concentration of 1 × 10^7 colony-forming units (CFU)/mL in RPMI. Then, 10 µL was added to a final volume of 100 µL in RPMI (final concentration: 1 × 10^6 CFU/mL). Cultures were exposed to peptides either in RPMI or RPMI supplemented with 50% (v/v) human plasma (hereafter referred to as 50% plasma), obtained from four healthy volunteers after informed consent, frozen after collection, and pooled (Sanquin, Amsterdam, The Netherlands). Assays were performed in duplicate using round-bottom polypropylene microtiter plates (Costar, Arlington, VA, USA) and repeated three times. In the initial screening phase (Table 1, Table 2 and Table S1), peptide solutions of 1, 10, and 100 μM (final concentration) were tested against A. baumannii RUH875 and S. aureus JAR060131 in RPMI and in 50% plasma. After this selection process, two lead candidates, their RI variants, and reference peptides were tested with a final concentration range of 0.12 to 120 µM (two-fold dilutions) in RPMI and in 50% plasma (Table 3). The peptides were also tested against ESKAPE pathogens, with Synthetic Antimicrobial and Antibiofilm Peptide (SAAP)-148 as a reference peptide (Table 4).RPMI or 50% plasma served as no-treatment controls. After 2 and 18 h of incubation at 37 °C with shaking at 120 rpm in a humidified environment, the numbers of viable bacteria were quantified. Bactericidal activity was expressed as the lethal concentration 99.9% (LC99.9), defined as the lowest peptide concentration that killed ≥99.9% of bacteria within 2 h (LC99.9_2h) or 18 h (LC99.9_18h) compared to the initial inoculum.

[2] = tested on: BJ human skin fibroblast cells; assay: WST-1 metabolic activity assay (cell viability); details: lowest concentration causing <70% metabolic activity (WST-1); BJ fibroblasts; 24 h; DMEM with 2% FBS; 0.05-60 µM
Method: BJ human skin fibroblast cells (ATCC CRL-2522; RRID: CVCL_3653; LGC Standards, Germany (September 2023)) were cultured in Dulbecco’s Modified Eagle Medium (DMEM; Gibco, Waltham, MA, USA) supplemented with 10% (v/v) foetal bovine serum (FBS; Sigma-Aldrich) and 1% (v/v) penicillin/streptomycin (pen/strep; Gibco). Cell suspensions (5 × 10^5 cells/mL) were seeded into 96-well plates (100 μL/well; Thermo Scientific, Waltham, MA, USA) and allowed to adhere for 24 h. Monolayers were then exposed to two-fold serial dilutions of GDST peptides, their RI variants, and reference peptides (final concentrations: 0.05 to 60 µM) in fresh DMEM with 2% (v/v) FBS for 24 h at 37 °C in a humidified atmosphere with 5% CO2.
Cell viability and membrane integrity were assessed using the water-soluble tetrazolium salt (WST-1; Roche, Basel, Switzerland) assay and the lactate dehydrogenase (LDH; Abcam, Cambridge, UK) assay, respectively, according to manufacturer instructions. Results were expressed as percentages of metabolic activity and LDH leakage relative to untreated control cells and the positive lysis control, respectively. The cytotoxic concentration was defined as the lowest peptide concentration causing <70% metabolic activity and >30% LDH leakage. All experiments were performed in triplicate.

A. baumannii RUH875 = assay type: cell-based; details: for LC99.9 A. baumannii RUH875 50% Plasma 2 h: RUH875, 2 h; for LC99.9 A. baumannii RUH875 50% Plasma 18 h: RUH875, 18 h
Method: as §1, §2

E. faecium LUH15122 = assay type: cell-based; details: for LC99.9 E. faecium LUH15122 50% Plasma 18 h / LC99.9 E. faecium LUH15122 RPMI 18 h: LUH15122, 18 h
Method: as §1, §2

E. coli LUH15117 = assay type: cell-based; details: for LC99.9 E. coli LUH15117 RPMI 2 h: LUH15117, 2 h
Method: as §1, §2

Row | Substance | Concentration killing ≥3 log CFU of A. baumannii biofilm within 2 h [1] [µM] | A. baumannii biofilm killing, 24 h treatment (in words) ([1]; 24 h treatment) | Cytotoxicity Metabolic Activity <70% [2] [µM] | Time to rise in SYTOX fluorescence intensity after peptide addition, S. aureus (S. aureus JAR060131) [min] | LC99.9 A. baumannii RUH875 50% Plasma 2 h (A. baumannii RUH875) [µM] | LC99.9 A. baumannii RUH875 50% Plasma 18 h (A. baumannii RUH875) [µM] | LC99.9 E. faecium LUH15122 50% Plasma 18 h (E. faecium LUH15122) [µM] | LC99.9 E. faecium LUH15122 RPMI 18 h (E. faecium LUH15122) [µM] | LC99.9 E. coli LUH15117 RPMI 2 h (E. coli LUH15117) [µM] | also measured
1 | Ac-LKRVWKRVFKLLKRYWRQLKKPVR-NH2 (N-terminus and C-terminus assumed) [SAAP-148, reference compound] | ≥ 15 | complete eradication | 3.75 |  |  |  |  |  |  | Concentrations causing rapid rise in SYTOX fluorescence, S. aureus (S. aureus JAR060131; RPMI, 1 μM SYTOX Green, 90 min, 37 °C): 0.23 to 1.88 µM; Reduction in activity in plasma after 18 h (MDR ESKAPE pathogens; 50% plasma vs RPMI, 18 h, except E. cloacae, A. baumannii, K. pneumoniae): 8 to 16 fold
2 | Ac-KRWVKILKKVWRFL-NH2 [GDST-045] | 60 |  | 3.75 | ≤ 1 | 1.88 | 0.94 | 3.75 | 0.94 | 0.94 | Reduction in A. baumannii biofilm CFU, 24 h treatment ([1]; at ≥60 µM, 24 h treatment): 3.5 log; LC99.9 E. faecium LUH15122 50% Plasma 2 h (E. faecium LUH15122; LUH15122, 2 h): 0.94 µM; LC99.9 E. faecium LUH15122 RPMI 2 h (E. faecium LUH15122; LUH15122, 2 h): 0.94 µM; LC99.9 E. coli LUH15117 RPMI 18 h (E. coli LUH15117; LUH15117, 18 h): 0.94 µM; Concentrations killing ESKAPE pathogens in 50% plasma within 2 h (MDR ESKAPE pathogens; 50% plasma, 2 h, range over species): 0.94 to 120 µM; Concentrations killing ESKAPE pathogens in 50% plasma after 18 h (MDR ESKAPE pathogens; 50% plasma, 18 h, range over species): 0.94 to 30 µM; Concentrations killing ESKAPE pathogens in RPMI within 2 h (MDR ESKAPE pathogens; RPMI, 2 h, range over species): 0.94 to 15 µM
3 | Ac-KRWVKIAKKWWRLL-NH2 [GDST-038] | 120 | did not cause significant biofilm CFU reduction | 3.75 | ≤ 1 | 0.94 | 0.47 | 7.5 | 0.94 | 0.94 | LC99.9 E. faecium LUH15122 50% Plasma 2 h (E. faecium LUH15122; 50% plasma, 2 h, median of three independent experiments): 1.88 µM; LC99.9 E. faecium LUH15122 RPMI 2 h (E. faecium LUH15122; RPMI, 2 h, median of three independent experiments): 1.88 µM; LC99.9 E. coli LUH15117 RPMI 18 h (E. coli LUH15117; colistin-resistant strain, RPMI, 18 h, median of three independent experiments): 1.88 µM; Concentrations required for E. cloacae, S. aureus and P. aeruginosa in 50% plasma within 2 h (MDR ESKAPE pathogens; 50% plasma, 2 h, range over the three species): 30 to 60 µM
